Source: BigSolDB 2.1

O=C(O)CCCCCC(=O)O
solubility (mole fraction) (in THF, 298.95 K): 0.191
solubility (mole fraction) (in THF, 300.55 K): 0.198
solubility (mole fraction) (in THF, 302.15 K): 0.204
solubility (mole fraction) (in THF, 303.65 K): 0.211
solubility (mole fraction) (in THF, 305.15 K): 0.218
solubility (mole fraction) (in THF, 307.95 K): 0.231
solubility (mole fraction) (in THF, 309.05 K): 0.235
solubility (mole fraction) (in THF, 311.75 K): 0.25
solubility (mole fraction) (in THF, 313.75 K): 0.259
solubility (mole fraction) (in THF, 315.75 K): 0.271
solubility (mole fraction) (in THF, 317.75 K): 0.282
solubility (mole fraction) (in THF, 320.25 K): 0.296
solubility (mole fraction) (in THF, 321.65 K): 0.306
solubility (mole fraction) (in THF, 323.05 K): 0.316
solubility (mole fraction) (in diethyl ether, 278.95 K): 0.0091
solubility (mole fraction) (in diethyl ether, 281.95 K): 0.0102
solubility (mole fraction) (in diethyl ether, 284.65 K): 0.0112
solubility (mole fraction) (in diethyl ether, 287.05 K): 0.0122
solubility (mole fraction) (in diethyl ether, 290.05 K): 0.0137
solubility (mole fraction) (in diethyl ether, 292.95 K): 0.0152
solubility (mole fraction) (in diethyl ether, 294.75 K): 0.0165
solubility (mole fraction) (in diethyl ether, 296.35 K): 0.018
solubility (mole fraction) (in diethyl ether, 299.15 K): 0.0199
solubility (mole fraction) (in diethyl ether, 301.55 K): 0.0222
solubility (mole fraction) (in ethanol, 298.45 K): 0.121
solubility (mole fraction) (in ethanol, 301.45 K): 0.131
solubility (mole fraction) (in ethanol, 304.25 K): 0.144
solubility (mole fraction) (in ethanol, 305.75 K): 0.151
solubility (mole fraction) (in ethanol, 307.55 K): 0.158
solubility (mole fraction) (in ethanol, 310.25 K): 0.172
solubility (mole fraction) (in ethanol, 312.15 K): 0.187
solubility (mole fraction) (in ethanol, 314.85 K): 0.202
solubility (mole fraction) (in ethanol, 316.25 K): 0.206
solubility (mole fraction) (in ethanol, 317.95 K): 0.219
solubility (mole fraction) (in ethanol, 320.95 K): 0.235
solubility (mole fraction) (in ethanol, 323.55 K): 0.248
solubility (mole fraction) (in ethanol, 325.65 K): 0.267
solubility (mole fraction) (in ethanol, 327.55 K): 0.281
solubility (mole fraction) (in ethanol, 329.25 K): 0.294
solubility (mole fraction) (in methanol, 300.75 K): 0.142
solubility (mole fraction) (in methanol, 302.65 K): 0.152
solubility (mole fraction) (in methanol, 304.15 K): 0.159
solubility (mole fraction) (in methanol, 305.95 K): 0.171
solubility (mole fraction) (in methanol, 307.65 K): 0.18
solubility (mole fraction) (in methanol, 310.05 K): 0.187
solubility (mole fraction) (in methanol, 312.65 K): 0.205
solubility (mole fraction) (in methanol, 314.85 K): 0.218
solubility (mole fraction) (in methanol, 317.85 K): 0.246
solubility (mole fraction) (in methanol, 321.35 K): 0.27
solubility (mole fraction) (in methanol, 323.75 K): 0.293
solubility (mole fraction) (in methanol, 325.55 K): 0.309
solubility (mole fraction) (in methanol, 327.15 K): 0.324
solubility (mole fraction) (in methanol, 328.75 K): 0.342
